Where two headings read alike, the source gives them in different places. Where only a bound is given, the exact number is not on record here.

For orientation: IC50 means the concentration needed to halve the response being measured.

In assay [1] the target is IDH1-R132H recombinant protein (Homo sapiens (Human), UniProt O75874, R132H). Nature of the assay: IDH1-R132H enzymatic assay (inhibition of NADPH consumption, diaphorase/resazurin readout). The conditions noted are these: read-out: Enzyme IDH1 R132H IC50 (Range). The format is biochemical. The method in brief:
(§1)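 Compound was preincubated 15 min at 25 °C with 30 nM IDH1-R132H or 10 nM IDH1-R132C in Tris pH 7.5 buffer with MgCl2, BSA and Triton X-100. Reaction with 2 mM α-ketoglutarate and 20 μM NADPH (solution concentrations) ran 45 min at 25 °C. Remaining NADPH was detected via diaphorase/resazurin fluorescence (ex 535/em 590 nm), and IC50 came from four-parameter fits.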
(In general: Alamar Blue is a resazurin reagent that responds to reducing activity.)

The subject of assay [2] is HCT116 isogenic IDH1-R132H mutant cells. As to the kind of experiment: Cellular 2-HG assay using HCT116 mutant IDH1 cells (R132H), RapidFire mass spectrometry. The format is cell-based. Particulars: Homo sapiens, read-out: HCT116 IDH1 R132H IC50 (Range). The protocol: (§2) Example 106—Cellular 2-HG assay using HCT116 mutant IDH1 cells
(§3) HCT116 isogenic IDH1-R132H and IDH1-R132C mutant cells were cultured in growth media (McCoy's 5 A, 10% fetal bovine serum, 1× antibiotic-antimycotic solution and 0.3 mg/mL G418) in 5% CO2 in an incubator at 37° C. To prepare the assay, cells were trypsinized and resuspended in assay media (McCoy's 5 A with no L-glutamine, 10% fetal bovine serum, 1× antibiotic-antimycotic solution and 0.3 mg/mL G418). An aliquot of 10,000 cells/100 μL was transferred to each well of a clear 96-well tissue culture plate. The cells were incubated in 5% CO2 at 37° C. in an incubator overnight to allow for proper cell attachment. An aliquot of 50 μL of compound containing assay media were then added to each well and the assay plate was kept in 5% CO2 at 37° C. in an incubator for 24 hours. The media was then removed from each well and 150 μL of a methanol/water mixture (80/20 v/v) was added to each well. The plates were kept at −80° C. freezer overnight to allow for complete cell lysis. An aliquot of 125 μL of extracted supernatant was analyzed by RapidFire high-throughout-mass spectrometry (Agilent) to determine the cellular 2-HG level. The IC50 of a given compound was calculated by fitting the dose response curve of cellular 2-HG inhibition at a given concentration with the four parameter logistic equation.

Assay [3] concerns HCT116 isogenic IDH1-R132C mutant cells. As to the kind of experiment: Cellular 2-HG assay using HCT116 mutant IDH1 cells (R132C), RapidFire mass spectrometry. The format is cell-based. The conditions noted are these: Homo sapiens, read-out: HCT116 IDH1 R132C IC50 (Range). The protocol: as §2, §3
The target in assay [4] is IDH1-R132C recombinant protein (Homo sapiens (Human), UniProt O75874, R132C). Nature of the assay: IDH1-R132C enzymatic assay (inhibition of NADPH consumption, diaphorase/resazurin readout). The format is biochemical. The conditions noted are these: read-out: Enzyme IDH1 R132C IC50 (Range). The gist of the method: as §1
Chain of IDH1-R132C recombinant protein (O75874 whole entry R132C): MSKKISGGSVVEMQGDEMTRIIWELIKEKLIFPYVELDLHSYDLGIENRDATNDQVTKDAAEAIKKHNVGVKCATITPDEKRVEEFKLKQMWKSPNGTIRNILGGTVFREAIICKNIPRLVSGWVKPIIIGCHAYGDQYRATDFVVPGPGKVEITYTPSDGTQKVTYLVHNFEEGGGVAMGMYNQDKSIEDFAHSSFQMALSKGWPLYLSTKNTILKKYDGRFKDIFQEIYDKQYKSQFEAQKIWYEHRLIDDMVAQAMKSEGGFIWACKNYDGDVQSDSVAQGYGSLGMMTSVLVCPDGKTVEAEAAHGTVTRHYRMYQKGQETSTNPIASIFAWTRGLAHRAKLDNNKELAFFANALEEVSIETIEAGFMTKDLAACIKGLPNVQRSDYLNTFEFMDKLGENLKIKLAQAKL
Setting [5] is: HCT-116, cellular 2-HG level, HCT116 IDH1-R132H cells, 24 hours.
Where [6] appears, read: HCT-116, cellular 2-HG level, HCT116 IDH1-R132C cells, 24 hours.

Chain of IDH1-R132H recombinant protein (O75874 whole entry R132H): as the sequence (O75874 whole entry R132C) above, with C132H counted along it

`C[C@H](Nc1nccc([S@@+](C)[O-])n1)c1cc2cc(Cl)ccc2[nH]c1=O` [Compound I-112]: the IC50 lay within 100 to 1000 nM in assay [1], 100 to 1000 nM in assay [2] (setting [5]), 1000 to 10000 nM in assay [3] (setting [6]) and 1000 to 10000 nM in assay [4].

In the case of `C[C@H](Nc1nccc([S@+](C)[O-])n1)c1cc2cc(Cl)ccc2[nH]c1=O` [Compound I-113], the IC50 in assay [1] was less than 100 nM; in assay [2] (setting [5]) it was less than 100 nM; in assay [3] (setting [6]) it was 100 to 1000 nM; in assay [4], 100 to 1000 nM.

With `C[C@H](Nc1nccc(C(N)=O)n1)c1cc2cc(Cl)ccc2[nH]c1=O` [Compound I-114, (S)-2-((1-(6-chloro-2-oxo-1,2-dihydroquinolin-3-yl)ethyl)amino)pyrimidine-4-carboxamide], the IC50 in assay [1] was less than 100 nM; in assay [2] (setting [5]) it was 100 to 1000 nM; in assay [3] (setting [6]), 100 to 1000 nM; in assay [4], 100 to 1000 nM.

With `CNC(=O)c1ccnc(N[C@@H](C)c2cc3cc(Cl)ccc3[nH]c2=O)n1` [Compound I-115], the IC50 in assay [1], in assay [2] (setting [5]), in assay [3] (setting [6]) and in assay [4] was 100 to 1000 nM each time.

In the case of `CC(C)CNC(=O)c1ccnc(N[C@@H](C)c2cc3cc(Cl)ccc3[nH]c2=O)n1` [Compound I-116], the IC50 was in the range of 100 to 1000 nM in assay [1], 100 to 1000 nM in assay [2] (setting [5]), 1000 to 10000 nM in assay [3] (setting [6]) and 100 to 1000 nM in assay [4].

As to `C[C@H](Nc1nccc(N2CCNC2=O)n1)c1cc2cc(Cl)ccc2[nH]c1=O` [Compound I-123, (S)-6-Chloro-3-(1-((4-(2-oxoimidazolidin-1-yl)pyrimidin-2-yl)amino)ethyl)quinolin-2(1H)-one], the IC50 is less than 100 nM in assay [1], 100 to 1000 nM in assay [2] (setting [5]), 100 to 1000 nM in assay [3] (setting [6]) and 100 to 1000 nM in assay [4].

Take `COC(=O)c1ccnc(N[C@@H](C)c2cc3cc(Cl)ccc3[nH]c2=O)n1` [Compound I-129]: the IC50 in assay [1] lay within 100 to 1000 nM; in assay [2] (setting [5]), 1000 to 10000 nM; in assay [3] (setting [6]) it was 1000 to 10000 nM; in assay [4], 1000 to 10000 nM.

As to `COc1nc(NC(C)c2cc3cc(Cl)c(F)cc3[nH]c2=O)ncc1C#N` (centres unmarked) [Compound I-142], the IC50 was less than 100 nM in assay [1]; less than 100 nM in assay [2] (HCT-116, 24 h); 100 to 1000 nM in assay [3] (HCT-116, 24 h); 100 to 1000 nM in assay [4].

For `COc1cc2[nH]c(=O)c([C@H](C)Nc3ncc(C#N)c(OC)n3)cc2cc1Cl` [Compound I-143, (S)-2-((1-(6-Chloro-7-methoxy-2-oxo-1,2-dihydroquinolin-3-yl)ethyl)amino)-4-methoxypyrimidine-5-carbonitrile], the IC50 in assay [1] is less than 100 nM; in assay [2] (HCT-116, 24 h) it was less than 100 nM; in assay [3] (HCT-116, 24 h), less than 100 nM; in assay [4], less than 100 nM.

With `COc1cc2[nH]c(=O)c(C(C)Nc3ncc(C#N)c(OC)n3)cc2cc1Cl` (centres unmarked) [Compound I-145], the IC50 in assay [1] is less than 100 nM; in assay [2] (HCT-116, 24 h), less than 100 nM; in assay [3] (HCT-116, 24 h), 100 to 1000 nM; in assay [4], less than 100 nM.

Consider `COc1cc2[nH]c(=O)c(C(C)Nc3nccc(N4CCOC4=O)n3)cc2cc1Cl` (centres unmarked) [Compound I-146], for which the IC50 in assay [1] was less than 100 nM; in assay [2] (setting [5]), less than 100 nM; in assay [3] (setting [6]), 100 to 1000 nM; in assay [4], 100 to 1000 nM.

For the compound `CC(=O)Nc1ccnc(NC(C)c2cc3cc(Cl)c(OCc4ccccn4)cc3[nH]c2=O)n1` (centres unmarked) [Compound I-149], the IC50 in assay [1], in assay [2] (setting [5]), in assay [3] (setting [6]) and in assay [4] was less than 100 nM throughout.

As for `COc1nc(N[C@@H](C)c2cc3cc(Cl)c(OCc4ccccn4)cc3[nH]c2=O)ncc1C#N` [Compound I-151, (S)-2-((1-(6-Chloro-2-oxo-7-(pyridin-2-ylmethoxy)-1,2-dihydroquinolin-3-yl)ethyl)amino)-4-methoxypyrimidine-5-carbonitrile], the 50% inhibitory concentration (IC50) in assay [1], in assay [2] (setting [5]), in assay [3] (setting [6]) and in assay [4] was less than 100 nM in each case.

On to `C[C@H](Nc1ncc(C#N)c(O)n1)c1cc2cc(Cl)c(OCc3ccccn3)cc2[nH]c1=O` [Compound I-152, (S)-2-((1-(6-chloro-2-oxo-7-(pyridin-2-ylmethoxy)-1,2-dihydroquinolin-3-yl)ethyl)amino)-4-hydroxypyrimidine-5-carbonitrile], for which the IC50 in assay [1] is less than 100 nM; in assay [2] (setting [5]), 100 to 1000 nM; in assay [3] (setting [6]) it was 1000 to 10000 nM; in assay [4], 1000 to 10000 nM.

For `COC(=O)Nc1ccnc(N[C@@H](C)c2cc3cc(Cl)c(OCc4ccccn4)cc3[nH]c2=O)n1` [Compound I-154, (S)-methyl (2-((1-(6-Chloro-2-oxo-7-(pyridin-2-ylmethoxy)-1,2-dihydroquinolin-3-yl)ethyl)amino)pyrimidin-4-yl)carbamate], the IC50 in assay [1], in assay [2] (setting [5]), in assay [3] (setting [6]) and in assay [4] was less than 100 nM in each case.

For `COc1nc(N[C@@H](C)c2cc3cc(Cl)cnc3[nH]c2=O)ncc1C#N` [Compound I-155, (S)-2-((1-(6-chloro-2-oxo-1,2-dihydro-1,8-naphthyridin-3-yl)ethyl)amino)-4-methoxy pyrimidine-5-carbonitrile], the IC50 was less than 100 nM in assay [1], 100 to 1000 nM in assay [2] (setting [5]), 1000 to 10000 nM in assay [3] (setting [6]) and 1000 to 10000 nM in assay [4].

For `COc1nc(N[C@H](C)c2nc3cc(Cl)ccc3[nH]c2=O)ncc1C#N` [Compound I-157], the IC50 is 100 to 1000 nM in assay [1]; less than 100 nM in assay [2] (HCT-116, 24 h); 100 to 1000 nM in assay [3] (HCT-116, 24 h); 1000 to 10000 nM in assay [4].

Take `COc1nc(N[C@@H](C)c2cc3cc(Cl)c(O[C@H](C)c4ccccn4)cc3[nH]c2=O)ncc1C#N` [Compound I-158, 2-(((S)-1-(6-chloro-2-oxo-7-((R)-1-(pyridin-2-yl)ethoxy)-1,2-dihydroquinolin-3-yl)ethyl)amino)-4-methoxypyrimidine-5-carbonitrile]: the IC50 was less than 100 nM in assay [1], less than 100 nM in assay [2] (setting [5]), 100 to 1000 nM in assay [3] (setting [6]) and less than 100 nM in assay [4].

Turning to `COc1nc(N[C@@H](C)c2cc3cc(Cl)c(OCC4CC4)cc3[nH]c2=O)ncc1C#N` [Compound I-159, (S)-2-((1-(6-chloro-7-(Cyclopropylmethoxy)-2-oxo-1,2-dihydroquinolin-3-yl)ethyl)amino)-4-methoxypyrimidine-5-carbonitrile], the IC50 in assay [1], in assay [2] (setting [5]), in assay [3] (setting [6]) and in assay [4] was less than 100 nM each time.

In the case of `CC(=O)Nc1ccnc(N[C@@H](C)c2cc3cc(Cl)cc(F)c3[nH]c2=O)n1` [Compound I-160, (S)—N-(2-((1-(6-Chloro-8-fluoro-2-oxo-1,2-dihydroquinolin-3-yl)ethyl)amino)pyrimidin-4-yl)acetamide], the IC50 in assay [1], in assay [2] (setting [5]), in assay [3] (setting [6]) and in assay [4] was less than 100 nM in each case.

Turning to `COc1nc(N[C@@H](C)c2cc3cc(Cl)cc(F)c3[nH]c2=O)ncc1C#N` [Compound I-161, (S)-2-((1-(6-Chloro-8-fluoro-2-oxo-1,2-dihydroquinolin-3-yl)ethyl)amino)-4-methoxy pyrimidine-5-carbonitrile], the IC50 is less than 100 nM in assay [1], less than 100 nM in assay [2] (setting [5]), 100 to 1000 nM in assay [3] (setting [6]) and 100 to 1000 nM in assay [4].

With `COc1nc(N[C@@H](C)c2cc3cc(Cl)c(Br)cc3[nH]c2=O)ncc1C#N` [Compound I-162, (S)-2-((1-(7-bromo-6-chloro-2-oxo-1,2-dihydroquinolin-3-yl)ethyl)amino)-4-methoxypyrimidine-5-carbonitrile], the IC50 in assay [1] was less than 100 nM; in assay [2] (setting [5]), less than 100 nM; in assay [3] (setting [6]) it was 100 to 1000 nM; in assay [4], 100 to 1000 nM.

For the compound `CC(=O)Nc1ccnc(N[C@@H](C)c2cc3cc(Cl)c(F)cc3[nH]c2=O)n1` [Compound I-179, (S)—N-(2-((1-(6-chloro-7-fluoro-2-oxo-1,2-dihydroquinolin-3-yl)ethyl)amino)pyrimidin-4-yl)acetamide], the IC50 in assay [1], in assay [2] (setting [5]), in assay [3] (setting [6]) and in assay [4] was less than 100 nM in each case.

For the origin of these results see patent US10280150B2 (FORMA TM2, Inc., priority 2014, dated 2019).
